Measurements taken from patent publication US20250049809A1, “INHIBITORS OF MUTANT IDH1 AND IDH2” (Board of Regents, The University of Texas System, priority 2023, published 2025).
Read-outs that look alike come from different tables or passages of the source.

Assays:
mIDH1R132H/S280F = mIDH1R132H/S280F (Homo sapiens (Human), UniProt O75874, R132H/S280F); assay: mIDH1 R132H/S280F enzymatic activity assay (NADPH fluorescence); assay type: biochemical; conditions: enzyme assay, 1 hour preincubation; read-out: IDH1R132H/S280F IC50
Sequence of mIDH1R132H/S280F (O75874 whole entry R132H/S280F): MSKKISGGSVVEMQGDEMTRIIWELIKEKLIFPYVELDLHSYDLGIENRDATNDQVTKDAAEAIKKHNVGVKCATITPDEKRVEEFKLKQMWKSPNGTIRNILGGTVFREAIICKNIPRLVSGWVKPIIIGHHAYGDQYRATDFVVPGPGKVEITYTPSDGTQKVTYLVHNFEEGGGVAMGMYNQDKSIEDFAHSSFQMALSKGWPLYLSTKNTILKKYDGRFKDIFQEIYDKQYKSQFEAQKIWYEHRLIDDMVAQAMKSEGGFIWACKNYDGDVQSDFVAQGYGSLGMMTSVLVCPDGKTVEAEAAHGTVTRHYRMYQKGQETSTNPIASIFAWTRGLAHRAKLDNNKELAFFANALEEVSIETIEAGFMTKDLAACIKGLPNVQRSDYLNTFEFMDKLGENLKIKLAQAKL
Procedure: (§1) The enzymatic activity of mIDH1R132H/S280F was assessed by measuring the fluorescence of the NADPH. The assay was performed in 384 well, white ProxiPlates (PerkinElmer, 6008280) in assay buffer containing 50 mM Hepes (Life Technologies, 15630080), 50 mM KCl (Teknova, P0327), 10 mM MgCl2 (Sigma-Aldrich, M1028), 1 mM DTT (Sigma-Aldrich, 43815), 0.02% BSA (Sigma-Aldrich, A3059) at pH 7.5. The final reaction volume was 10 μL. Stock solutions of the test compounds were prepared in 100% DMSO (Sigma, D2650) and serially diluted 1:3 using 100% DMSO. 50 nL of compound were then transferred to the assay plate using the Beckman Coulter ECHO 650 Acoustic Liquid Handler for a final DMSO concentration of 0.5%. 5 μL of a mIDH1R132H/S280F and NADPH (Santa Cruz, SC202725C) mixture were added to the assay plate for a final concentration of 2 nM and 10 PM, respectively. 5 μL of NADPH alone were added to negative control wells followed by a 1 hour preincubation at room temperature. 5 μL of alphaketoglutarate (Sigma-Aldrich, K1128) were added to the assay plate for a final concentration of 120 μM. Fluorescence of NADPH (excitation: 350 nm, emission 450 nm) was immediately measured kinetically for approximately 90 minutes using the BioTek Synergy Neo plate reader.

mIDH2R140Q = mIDH2R140Q (Homo sapiens (Human), UniProt P48735, R140Q); assay: mIDH2 R140Q enzymatic activity assay (NADPH fluorescence); assay type: biochemical; conditions: enzyme assay, 1 hour preincubation; read-out: IDH2R140Q IC50
Sequence of mIDH2R140Q (P48735 40-452 R140Q): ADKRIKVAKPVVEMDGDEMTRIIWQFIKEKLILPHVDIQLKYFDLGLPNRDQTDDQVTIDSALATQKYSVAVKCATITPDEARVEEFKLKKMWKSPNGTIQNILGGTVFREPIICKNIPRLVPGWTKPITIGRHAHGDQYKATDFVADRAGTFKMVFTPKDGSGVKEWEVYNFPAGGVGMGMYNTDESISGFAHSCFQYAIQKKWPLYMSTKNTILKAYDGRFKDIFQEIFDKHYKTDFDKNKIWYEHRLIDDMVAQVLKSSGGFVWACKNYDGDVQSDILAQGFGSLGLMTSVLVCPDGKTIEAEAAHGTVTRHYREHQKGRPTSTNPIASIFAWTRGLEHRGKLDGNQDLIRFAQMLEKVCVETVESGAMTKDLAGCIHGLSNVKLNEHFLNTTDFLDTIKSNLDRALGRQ
Procedure: as §1, with “of mIDH2R140Q” for “of mIDH1R132H/S280F”, “a mIDH2R140Q” for “a mIDH1R132H/S280F”, “of 3” for “of 2”, “10 μM,” for “10 PM,”, “of 300” for “of 120”, “approximately 150” for “approximately 90”

U87 IDH1R132H = U87 IDH1R132H (Homo sapiens (Human), UniProt O75874, R132H); assay: U87 IDH1 R132H 2-HG cellular assay; assay type: cell-based; conditions: extracellular 2HG, 24 h treatment, IDH1 mutant-U-87 isogenic cell line
Sequence of U87 IDH1R132H (O75874 whole entry R132H): as the sequence (O75874 whole entry R132H/S280F) above, with F280S counted along it
Procedure: The IDH1 mutant-U-87 isogenic cell line (ATCC HTB-14IG) used to test cellular inhibition is a glioma IDH1R132H mutant isogenic line derived from the parental U-87MG cell line. These cells are maintained in EMEM (ATCC 30-2003) culture media with 10% FBS and 10 U/mL Penicillin-Streptomycin. Twelve thousand cells are plated in polystyrene 384 well cell culture plates (Greiner Bio-One 781091) (12,000 cells/well) approximately 18 hours before compound treatment. Immediately before treatment, the cells are washed twice with PBS, followed by culture media replenishing. Cells are then treated with different concentrations of test compounds (5 μM to 0.3 pM) for 24 h. Extracellular 2HG levels are measured from cell culture media. For analyte extraction, 30 μL of culture media is transferred to 120 uL 100% acetonitrile in a deep 384 well plate and mixed well, followed by 5 min centrifugation at 3700 rpm at room temperature. 100 μL of supernatant is transferred to a flat bottom 384 well plate. Samples are run on the Agilent RapidFire-Mass Spectrometry instrument to detect 2HG levels. The samples from each well were aspirated for 600 ms and loaded onto a HILIC solid-phase extraction cartridge (Agilent) followed by a wash step for 3000 ms with 90% acetonitrile containing 5 mM ammonium acetate. Analytes were then eluted off the cartridge into the Agilent 6460 Triple Quad mass spectrometer with a 4500 ms elution step using 30% acetonitrile containing 5 mM ammonium acetate. The HILIC cartridge was then re-equilibrated by 90% acetonitrile containing 5 mM ammonium acetate for 500 ms. The 2HG was detected by an Agilent 6460 Triple Quad mass spectrometer in negative ion mode. Multiple reaction monitoring was used to quantify 2HG using the precursor ion and product ion at m/z 147.03 and 128.9, respectively. The percent activity of each sample is calculated by using DMSO and control compound treated references, and IC50 values are obtained using the GeneData Screener data analysis program.

TF1 IDH2R140Q = TF1 IDH2R140Q (Homo sapiens (Human), UniProt P48735, R140Q); assay: TF1 IDH2 R140Q 2-HG cellular assay; assay type: cell-based; conditions: extracellular 2HG, 24 hr treatment, IDH2 mutant-TF1 isogenic cell line
Sequence of TF1 IDH2R140Q (P48735 40-452 R140Q): as the sequence (P48735 40-452 R140Q) above
Procedure: The IDH2 mutant-TF1 isogenic cell line (ATCC CRL-20031G) used to test cellular inhibition is an erythroblast cell line that was isolated from the marrow of a patient with erythroleukemia with the IDH2R140Q mutation. These cells are maintained in RPMI-1640 (ATCC 30-2001) culture media with 10% FBS, 10 U/mL Penicillin-Streptomycin, and 2 ng/mL GM-CSF. Thirty thousand cells are plated in polystyrene tissue culture treated 384 well cell culture plates (PerkinElmer 6007680) (30,000 cells/well) approximately 2 hours before compound treatment. Cells are then treated with different concentrations of test compounds (5 μM to 0.3 pM) for 24 hr. Extracellular 2HG levels are measured from cell culture media. For analyte extraction, 30 μL of culture media is transferred to 120 μL 100% acetonitrile in a deep 384 well plate and mixed well, followed by 5 min centrifugation at 3700 rpm at room temperature. 100 μL of supernatant is transferred to a flat bottom 384 well plate. Samples are run on the Agilent RapidFire-Mass Spectrometry instrument to detect 2HG levels. The samples from each well were aspirated for 600 ms and loaded onto a HILIC solid-phase extraction cartridge (Agilent) followed by a wash step for 3000 ms with 90% acetonitrile containing 5 mM ammonium acetate. Analytes were then eluted off the cartridge into the Agilent 6460 Triple Quad mass spectrometer with a 4500 ms elution step using 30% acetonitrile containing 5 mM ammonium acetate. The HILIC cartridge was then re-equilibrated by 90% acetonitrile containing 5 mM ammonium acetate for 500 ms. The 2HG was detected by an Agilent 6460 Triple Quad mass spectrometer in negative ion mode. Multiple reaction monitoring was used to quantify 2HG using the precursor ion and product ion at m/z 147.03 and 128.9, respectively. The percent activity of each sample is calculated by using DMSO and control compound treated references, and IC50 values are obtained using the GeneData Screener data analysis program.

[1] = rcm bond, DCE, 60.0 °C
[2] = rcm bond

SMILES	IC50 (mIDH1R132H/S280F) [nM]	IC50 (mIDH2R140Q) [nM]	IC50 (U87 IDH1R132H) [nM]	IC50 (TF1 IDH2R140Q) [nM]	further results
C[C@@H]1Nc2ncc3c(n2)N(C(=O)OC3)[C@@H](C)CC=CCOCC(N2CCN(C(=O)OC(C)(C)C)CC2)c2ccc1cc2 (stereo partly drawn)					ring closure, yield after HPLC ([1]; from C=CCOCC(c1ccc([C@H](C)Nc2ncc3c(n2)N([C@@H](C)CC=C)C(=O)OC3)cc1)N1CCN(C(=O)OC(C)(C)C)CC1, 18-membered ring, Hoveyda-Grubbs II (0.1 eq), 8.24 mM, 9.0 h): 27.6%
C[C@@H]1Nc2ncc3c(n2)N(CC=CCCCC(N2CCN(C(=O)OC(C)(C)C)CC2)c2ccc1cc2)C(=O)OC3 (stereo partly drawn)					ring closure, yield after HPLC ([1]; from C=CCCCC(c1ccc([C@H](C)Nc2ncc3c(n2)N(CC=C)C(=O)OC3)cc1)N1CCN(C(=O)OC(C)(C)C)CC1, 17-membered ring, Hoveyda-Grubbs II (2 x 0.1 eq), 8.67 mM, 15.0 h): 21%
C[C@@H]1Nc2ncc3c(n2)N(CCCCC=CCCC(N2CCN(C(=O)OC(C)(C)C)CC2)c2ccc1cc2)C(=O)OC3 (stereo partly drawn)					ring closure, isolated yield ([2]; from C=CCCCCN1C(=O)OCc2cnc(N[C@@H](C)c3ccc(C(CCC=C)N4CCN(C(=O)OC(C)(C)C)CC4)cc3)nc21, 19-membered ring, Hoveyda-Grubbs II (0.21 eq), DCE, 16.6 mM, 60.0 °C, 9.0 h): 49.2%
C[C@@H]1Nc2ncc3c(n2)N(CC=CCCCC(=O)c2ccc1cc2)C(=O)OC3					ring closure, isolated yield ([2]; from C=CCCCC(=O)c1ccc([C@H](C)Nc2ncc3c(n2)N(CC=C)C(=O)OC3)cc1, 17-membered ring, Grubbs II (2 portions), DCM, 2.04 mM, 40.0 °C, 84.0 h): 52%
C[C@@H]1Nc2ncc3c(n2)N(CC=CCCCCC(=O)c2ccc1cc2)C(=O)OC3					ring closure, isolated yield ([2]; from C=CCCCCC(=O)c1ccc([C@H](C)Nc2ncc3c(n2)N(CC=C)C(=O)OC3)cc1, 18-membered ring, Grubbs II (0.1 eq), DCM, 2.6 mM, 45.0 °C, 48.0 h): 36.5%

Second part, led by results:

IC50 (mIDH1R132H/S280F) [nM]	IC50 (mIDH2R140Q) [nM]	IC50 (U87 IDH1R132H) [nM]	IC50 (TF1 IDH2R140Q) [nM]	SMILES	further results
83	4990	0.31	1220	C=CC(=O)N1CCN(C2COCCCC[C@H](C)N3C(=O)OCc4cnc(nc43)N[C@@H](C)c3ccc2cc3)CC1 (stereo partly drawn) [Example 10, (3S,12S)-5-(4-acryloylpiperazin-1-yl)-3,12-dimethyl-1^1,1^4-dihydro-1^2H-7-oxa-2-aza-1(7,1)-pyrimido[4,5-d][1,3]oxazina-4(1,4)-benzenacyclododecaphan-1^2-one]	
922	4730	0.19	351	C=CC(=O)N1CCN(C2CCCCCCN3C(=O)OCc4cnc(nc43)N[C@@H](C)c3ccc2cc3)CC1 (single isomer, unassigned) [Example 8]	
94	1490	0.14	504	C=CC(=O)N1CCN(C2CCCCCC[C@H](C)N3C(=O)OCc4cnc(nc43)N[C@@H](C)c3ccc2cc3)CC1 (stereo partly drawn) [Example 9, (3S,12S)-5-(4-acryloylpiperazin-1-yl)-3,12-dimethyl-1^1,1^4-dihydro-1^2H-2-aza-1(7,1)-pyrimido[4,5-d][1,3]oxazina-4(1,4)-benzenacyclododecaphan-1^2-one]	
103	1320	0.32	269	C=CC(=O)N1CCN(C2CCCCCCCCN3C(=O)OCc4cnc(nc43)N[C@@H](C)c3ccc2cc3)CC1 (stereo partly drawn) [Example 1, (3S)-5-(4-acryloylpiperazin-1-yl)-3-methyl-1^1,1^4-dihydro-1^2H-2-aza-1(7,1)-pyrimido[4,5-d][1,3]oxazina-4(1,4)-benzenacyclotridecaphan-1^2-one]	
		0.26	1720	C=CC(=O)N1CCN(C2CCC/C=C/CN3C(=O)OCc4cnc(nc43)N[C@@H](C)c3ccc2cc3)CC1 (stereo partly drawn) [Example 6, (3S,Z)-5-(4-acryloylpiperazin-1-yl)-3-methyl-1^1,1^4-dihydro-1^2H-2-aza-1(7,1)-pyrimido[4,5-d][1,3]oxazina-4(1,4)-benzenacycloundecaphan-9-en-1^2-one]	
284	1840	0.31	342	C=CC(=O)N1CCN(C2CC/C=C\CCCCN3C(=O)OCc4cnc(nc43)N[C@@H](C)c3ccc2cc3)CC1 (stereo partly drawn) [Example 2, (3S,Z)-5-(4-acryloylpiperazin-1-yl)-3-methyl-1^1,1^4-dihydro-1^2H-2-aza-1(7,1)-pyrimido[4,5-d][1,3]oxazina-4(1,4)-benzenacyclotridecaphan-8-en-1^2-one]	
		0.1	215	C=CC(=O)N1CCN(C2CCCC/C=C/CCN3C(=O)OCc4cnc(nc43)N[C@@H](C)c3ccc2cc3)CC1 (stereo partly drawn) [Example 5, (3S,E)-5-(4-acryloylpiperazin-1-yl)-3-methyl-1^1,1^4-dihydro-1^2H-2-aza-1(7,1)-pyrimido[4,5-d][1,3]oxazina-4(1,4)-benzenacyclotridecaphan-10-en-12-one]	
295	1730	0.24	123	C=CC(=O)N1CCN(C2CCCCCCN3C(=O)OCc4cnc(nc43)N[C@@H](C)c3ccc2cc3)CC1 (single isomer, unassigned) [Example 7]	
